These results are taken from patent publication US20060276372A1, “Carotenoids, carotenoid analogs, or carotenoid derivatives for the treatment of proliferative disorders” (priority 2005, published 2006).

For series [1] the following is noted: cited from earlier work.
For series [2] the following is noted: mice; cited from earlier work.
The conditions of series [3]: 50 mg/kg, canines; cited from earlier work.
The conditions of series [4]: doses up to 75 mg/kg, rat; cited from earlier work.
In another series the test system is CX43. To be noted: aqueous ethanolic formulation, carcinogen-promoted 10T1/2 cells; cited from earlier work.
Series [5] relates to superoxide anion. To be noted: mM concentrations, aqueous phase; cited from earlier work.
A short description of series [6]: Oral administration, pharmacokinetics in mice. Format: in vivo. To be noted: oral preparation in lipophilic emulsion, single and multiple dose, murine model.
Series [7] has as its system superoxide anion. Kind of series: Direct superoxide anion scavenging by EPR spectroscopy (DEPMPO spin trap), PMA-stimulated isolated human PMNs. It is filed as cell-based. To be noted: aqueous phase; statistical mixture and individual stereoisomers. On the procedure:
Leukocyte Isolation and Preparation. Human polymorphonuclear leukocytes (PMNs) were isolated from freshly sampled venous blood of a single volunteer by Percoll density gradient centrifugation as described previously. Briefly, each 10 mL of whole blood was mixed with 0.8 mL of 0.1 M EDTA and 25 mL of saline. The diluted blood was then layered over 9 mL of Percoll at a specific density of 1.080 g/mL. After centrifugation at 400×g for 20 min at 20° C., the plasma, mononuclear cell, and Percoll layers were removed. Erythrocytes were subsequently lysed by addition of 18 mL of ice-cold water for 30 s, followed by 2 mL of 10×PIPES buffer (25 mM PIPES, 110 mM NaCl, and 5 mM KCl, titrated to pH 7.4 with NaOH). Cells were then pelleted at 4° C., the supernatant was decanted, and the procedure was repeated. After the second hypotonic cell lysis, cells were washed twice with PAG buffer [PIPES buffer containing 0.003% human serum albumin (HSA) and 0.1% glucose]. Afterward, PMNs were counted by light microscopy on a hemocytometer. The isolation yielded PMNs with a purity of >95%. The final pellet was then suspended in PAG-CM buffer (PAG buffer with 1 mM CaCl2 and 1 mM MgCl2).
EPR Measurements. All EPR measurements were performed using a Bruker ER 300 EPR spectrometer operating at X-band with a TM110 cavity as previously described. The microwave frequency was measured with a Model 575 microwave counter (EIP Microwave, Inc., San Jose, Calif.). To measure superoxide anion (O2) generation from phorbol-ester (PMA)-stimulated PMNs, EPR spin-trapping studies were performed using the spin trap DEPMPO (Oxis, Portland, Oreg.) at 10 mM. 1×10^6 PMNs were stimulated with PMA (1 ng/mL) and loaded into capillary tubes for EPR measurements. To determine the radical scavenging ability of 3 and 9 in aqueous and ethanolic formulations, PMNs were pre-incubated for 5 minutes with test compound, followed by PMA stimulation.
Instrument settings used in the spin-trapping experiments were as follows: modulation amplitude, 0.32 G; time constant, 0.16 s; scan time, 60 s; modulation frequency, 100 kHz; microwave power, 20 milliwatts; and microwave frequency, 9.76 GHz. The samples were placed in a quartz EPR flat cell, and spectra were recorded. The component signals in the spectra were identified and quantified as reported previously.

The nature of series [8]: Cardiac ischemia-reperfusion injury, experimental infarction model. It is filed as in vivo, rat. To be noted: intravenous pretreatment, rodents, highest dose tested.
The next series has as its system Connexin43 (Cx43). Nature of the series: Relative Cx43 protein levels by Western blot in C3H10T1/2 cells (Example 3). To be noted: Mus musculus, C3H 10T1/2, 168 h, read-out: Fold induction of Cx43 expression. It is filed as cell-based. An excerpt:
Treatments/Compounds._TTNPB (Biomol, Plymouth Meeting, Pa.); stock 5×10^−6M in acetone, diluted 1:500 in culture media (final 10^−8 M in 0.2% acetone). Lycophyll (All-trans, 95% pure, Hawaii Biotech, Inc., Aiea, Hi.); stocks 10^−2 M and 10^−3 M in tetrahydroftiran (THF; Sigma, St. Louis, Mo.) diluted 1:1000 and stirred into culture media immediately before treatment (final 10^−5 M and 10^−6 M in 0.1% THF). Lycopene (92.7% pure, Chromadex, Inc., Santa Ana, Calif.); stocks 10^−2 M and 10^−3 M in tetrahydrofuran (Sigma, St. Louis, Mo.) diluted 1:1000 and stir into culture media immediately before treatment (final 10^−5 M and 10^−6 M in 0.1% THF). […]
SDS-PAGE Electrophoresis, Transfer and Immunodetection. […] Lysates were sonicated and protein concentrations quantified using the BCA protein determination assay (Pierce, Rockford, Ill.). […] Protein standards were utilized to confirm molecular weight of detected protein (SeeBlue, Invitrogen, Carlsbad, Calif.). […] Cx43 protein was detected according to the manufacturer's instructions using the WesternBreeze Immunodetection Kit (Invitrogen, Carlsbad, Calif.) and a rabbit primary antibody reactive against the cytoplasmic tail of Cx43 (1:2000, Sigma, St. Louis, Mo.).
Quantification of Relative Western Blot Cx43 Protein Levels. […]
Background: In western blotting, separated proteins are transferred to a membrane and probed.

For series [9], the target named is human serum albumin (HSA) (Homo sapiens, UniProt P02768). Kind of series: Plasma-protein binding studies in vitro.

Entries after “also recorded” stand apart in the source; their conditions may differ. Structures can show the parent of a compound that is named as a salt. Where two headings read alike, the source gives them in different places.

Sequence of human serum albumin (HSA) (P02768 25-609): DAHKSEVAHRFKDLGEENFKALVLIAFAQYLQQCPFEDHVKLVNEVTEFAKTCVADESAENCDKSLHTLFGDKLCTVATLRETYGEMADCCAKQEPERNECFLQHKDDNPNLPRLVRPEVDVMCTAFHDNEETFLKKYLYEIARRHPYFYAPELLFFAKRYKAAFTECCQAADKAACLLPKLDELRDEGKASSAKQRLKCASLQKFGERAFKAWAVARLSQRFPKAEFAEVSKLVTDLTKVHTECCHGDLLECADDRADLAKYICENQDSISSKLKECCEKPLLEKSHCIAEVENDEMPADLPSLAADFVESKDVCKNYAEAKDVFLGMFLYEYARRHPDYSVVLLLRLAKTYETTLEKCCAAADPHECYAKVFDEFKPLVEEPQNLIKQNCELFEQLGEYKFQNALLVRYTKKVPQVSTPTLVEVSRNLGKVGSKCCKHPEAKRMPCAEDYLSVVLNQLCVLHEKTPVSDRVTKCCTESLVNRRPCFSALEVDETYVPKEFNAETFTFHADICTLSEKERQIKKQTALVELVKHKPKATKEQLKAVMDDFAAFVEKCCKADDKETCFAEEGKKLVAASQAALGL

Consider `CC1=C(/C=C/C(C)=C/C=C/C(C)=C/C=C/C=C(C)/C=C/C=C(C)/C=C/C2=C(C)C(=O)C(OC(=O)CCC(=O)O)CC2(C)C)C(C)(C)CC(OC(=O)CCC(=O)O)C1=O` (racemic) [dAST, disodium salt disuccinate ester of astaxanthin], for which, in series [1], the “concentration of pseudo-solution in water” value is “up to 8 mg/ml; also recorded: approximately 10 mM”. In addition, the “absorption and tissue distribution after oral administration” value in [2] was “rapid absorption of the compound, its cleavage to free astaxanthin, and accumulation in certain target tissues”. The “protection against cardiac ischemia-reperfusion (I/R) injury” value in series [3] and in [4] was “significantly protect against cardiac ischemia-reperfusion (I/R) injury” throughout. For the same molecule, in the series on CX43, the “expression of CX43 and GJIC” value is “increased expression of the connexin protein CX43 and GJIC”. The “inhibition of the induced superoxide anion” value with superoxide anion [5] was “complete inhibition”. Moreover, the “plasma and tissue levels of nonesterified astaxanthin” value in series [6] is “significant plasma and tissue levels of nonesterified astaxanthin were achieved”.

As for `CC1=C(/C=C/C(C)=C/C=C/C(C)=C/C=C/C=C(C)/C=C/C=C(C)/C=C/C2=C(C)C(=O)C(OC(=O)CCC(=O)O)CC2(C)C)C(C)(C)CC(OC(=O)CCC(=O)O)C1=O` (stereo not drawn) [dAST, disodium salt disuccinate ester of astaxanthin], the “direct scavenging of superoxide anion” value in the series on superoxide anion [7] is listed as “potent direct scavengers of superoxide anion in the aqueous phase”. Further, the myocardial salvage result in series [8] was “up to 56%”.

On to `CC(C)=CCC/C(C)=C/C=C/C(C)=C/C=C/C(C)=C/C=C/C=C(C)/C=C/C=C(C)/C=C/C=C(\C)CCC=C(C)C` [lycopene, reference compound], for which, in the series with Connexin43 (Cx43), the fold induction at 1 µM was 1.55 and the fold induction at 10 µM is 1.51.

Turning to `CC(C=CC=C(C)C=CC1=C(C)C(=O)C(OC(=O)CCC(=O)[O-])CC1(C)C)=CC=CC=C(C)C=CC=C(C)C=CC1=C(C)C(=O)C(OC(=O)CCC(=O)[O-])CC1(C)C.[Na+].[Na+]` [meso-(3R,3′S)-disodium disuccinate astaxanthin], the “binding to human serum albumin” value in [9] is “bound immediately and preferentially to human serum albumin (HSA) at a binding site”.
